Assay results published in US10363251B2, “(+)-morphinans as antagonists of toll-like receptor 9 and therapeutic uses thereof” (Mallinckrodt LLC, priority 2009, dated 2019).

Columns and labels:
Assay type in all cases: cell-based
TLR2 = biological target: T1, TLR2 (Homo sapiens, UniProt O60603); test: TLR2 antagonist screening, NF-κB-inducible SEAP reporter in HEK293 cells; conditions: for Average % Inhibition at TLR2: 10 μM, stimulated with HKLM at 10^8 cell/ml
T1 construct: expressed in transfected cells; host or cells: HEK293
T1 sequence (O60603 21-784, species assumed): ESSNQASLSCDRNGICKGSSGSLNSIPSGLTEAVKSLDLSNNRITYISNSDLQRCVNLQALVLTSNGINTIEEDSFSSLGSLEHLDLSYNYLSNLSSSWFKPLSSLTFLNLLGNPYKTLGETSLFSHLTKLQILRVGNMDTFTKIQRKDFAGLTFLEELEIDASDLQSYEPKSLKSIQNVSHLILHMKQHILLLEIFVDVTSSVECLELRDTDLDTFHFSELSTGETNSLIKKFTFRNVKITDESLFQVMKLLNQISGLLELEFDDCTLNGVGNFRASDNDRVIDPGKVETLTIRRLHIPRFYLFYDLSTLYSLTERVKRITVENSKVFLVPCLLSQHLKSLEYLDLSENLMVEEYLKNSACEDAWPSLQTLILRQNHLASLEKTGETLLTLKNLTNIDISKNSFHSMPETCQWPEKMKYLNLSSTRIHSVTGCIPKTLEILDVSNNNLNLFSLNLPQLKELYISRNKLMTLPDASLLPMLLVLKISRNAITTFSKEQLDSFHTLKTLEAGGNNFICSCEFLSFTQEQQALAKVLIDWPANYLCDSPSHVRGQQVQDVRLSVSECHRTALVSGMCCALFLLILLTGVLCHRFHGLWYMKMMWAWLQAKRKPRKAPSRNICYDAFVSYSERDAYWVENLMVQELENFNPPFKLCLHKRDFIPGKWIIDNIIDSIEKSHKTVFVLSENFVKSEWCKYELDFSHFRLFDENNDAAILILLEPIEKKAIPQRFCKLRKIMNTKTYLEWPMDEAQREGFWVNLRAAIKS
Experimental: (§1) Stimulation of TLRs 2, 3, 4, 5, 7, 8, and 9 was determined by assessing activation of the transcription factor NF-κB in HEK293 cells that were engineered to express the corresponding receptors. Assessment of TLR stimulation was based on the use of an NF-κB-inducible secreted alkaline phosphatase (SEAP) reporter system in which the SEAP reporter was under the control of a promoter inducible by NF-κB. Thus, the degree of activation of TLRs can be indirectly quantified spectrophotometrically by measuring the amount of the SEAP reporter that is produced.
(§2) The appropriate TLR-expressing cells were plated in Growth Medium in a 96-well plate (25,000-50,000 cells/well). The cells were stimulated with the appropriate positive control ligand or no ligand was added (negative control). The positive control ligands were: HKLM was used to stimulate TLR2; poly(I:C) was used to stimulate TLR3; LPS was used to stimulate TLR4; Flagellin was used to stimulate TLR5; CL097 was used to stimulate TLR7; CL075 was used to stimulate TLR8; CpG oligodeoxynucleotide (ODN) 2006 was used to stimulate TLR9. To test whether (+)-morphinans could block that activation of the TLR, the cells were pretreated with an antagonist for 30 minutes prior to addition of the positive control ligand. For this, 20 μL of the stock test compound solution (100 μM in H2O) was added to give a total volume of 200 μL. […] After a 16-20 hr incubation period at 37° C. in a CO2 incubator, 20 μL of the cell culture supernatant was added to 180 μL of QUANTI-Blue™ Media (InvivoGen, San Diego, Calif.), and the resulting solutions were incubated at 37° C. for an additional 1-3 hours according to the manufacturer's instructions. The OD's of the samples were then read at 650 nm on a Beckman Coulter AD 340C Absorbance Detector.

TLR3 = biological target: T2, TLR3 (Homo sapiens, UniProt O15455); test: TLR3 antagonist screening, NF-κB-inducible SEAP reporter in HEK293 cells; conditions: for Average % Inhibition at TLR3: 10 μM, stimulated with poly(I:C) at 1 μg/ml
T2 construct: expressed in transfected cells; host or cells: HEK293
T2 sequence (O15455 24-904, species assumed): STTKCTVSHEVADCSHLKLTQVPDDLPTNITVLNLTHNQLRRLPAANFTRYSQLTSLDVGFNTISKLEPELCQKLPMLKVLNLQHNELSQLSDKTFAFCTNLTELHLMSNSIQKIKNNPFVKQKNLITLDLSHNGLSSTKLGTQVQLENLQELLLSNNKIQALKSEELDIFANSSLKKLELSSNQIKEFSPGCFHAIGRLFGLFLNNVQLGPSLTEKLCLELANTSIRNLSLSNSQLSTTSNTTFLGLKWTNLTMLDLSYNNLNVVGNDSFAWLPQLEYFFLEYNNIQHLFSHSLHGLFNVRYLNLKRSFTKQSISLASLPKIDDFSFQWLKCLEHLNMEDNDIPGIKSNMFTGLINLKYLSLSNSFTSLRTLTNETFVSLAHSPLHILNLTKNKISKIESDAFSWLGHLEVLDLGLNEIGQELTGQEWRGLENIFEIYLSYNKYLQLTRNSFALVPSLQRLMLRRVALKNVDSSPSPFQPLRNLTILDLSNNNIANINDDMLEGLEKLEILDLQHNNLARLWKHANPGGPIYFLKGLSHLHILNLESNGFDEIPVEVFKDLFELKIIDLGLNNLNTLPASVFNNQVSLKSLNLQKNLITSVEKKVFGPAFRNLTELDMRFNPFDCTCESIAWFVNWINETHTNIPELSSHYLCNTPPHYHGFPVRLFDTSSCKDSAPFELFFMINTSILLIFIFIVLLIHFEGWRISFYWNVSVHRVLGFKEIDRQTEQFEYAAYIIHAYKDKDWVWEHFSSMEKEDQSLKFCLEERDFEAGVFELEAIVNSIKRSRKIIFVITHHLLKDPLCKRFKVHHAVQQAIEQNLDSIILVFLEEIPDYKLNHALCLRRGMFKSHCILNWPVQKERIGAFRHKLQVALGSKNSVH
Experimental: as §1, §2

TLR5 = biological target: T3, TLR5 (Homo sapiens, UniProt O60602); test: TLR5 antagonist screening, NF-κB-inducible SEAP reporter in HEK293 cells; conditions: for Average % Inhibition at TLR5: 10 μM, stimulated with Flagellin at 100 ng/ml
T3 construct: expressed in transfected cells; host or cells: HEK293
T3 sequence (O60602 21-858, species assumed): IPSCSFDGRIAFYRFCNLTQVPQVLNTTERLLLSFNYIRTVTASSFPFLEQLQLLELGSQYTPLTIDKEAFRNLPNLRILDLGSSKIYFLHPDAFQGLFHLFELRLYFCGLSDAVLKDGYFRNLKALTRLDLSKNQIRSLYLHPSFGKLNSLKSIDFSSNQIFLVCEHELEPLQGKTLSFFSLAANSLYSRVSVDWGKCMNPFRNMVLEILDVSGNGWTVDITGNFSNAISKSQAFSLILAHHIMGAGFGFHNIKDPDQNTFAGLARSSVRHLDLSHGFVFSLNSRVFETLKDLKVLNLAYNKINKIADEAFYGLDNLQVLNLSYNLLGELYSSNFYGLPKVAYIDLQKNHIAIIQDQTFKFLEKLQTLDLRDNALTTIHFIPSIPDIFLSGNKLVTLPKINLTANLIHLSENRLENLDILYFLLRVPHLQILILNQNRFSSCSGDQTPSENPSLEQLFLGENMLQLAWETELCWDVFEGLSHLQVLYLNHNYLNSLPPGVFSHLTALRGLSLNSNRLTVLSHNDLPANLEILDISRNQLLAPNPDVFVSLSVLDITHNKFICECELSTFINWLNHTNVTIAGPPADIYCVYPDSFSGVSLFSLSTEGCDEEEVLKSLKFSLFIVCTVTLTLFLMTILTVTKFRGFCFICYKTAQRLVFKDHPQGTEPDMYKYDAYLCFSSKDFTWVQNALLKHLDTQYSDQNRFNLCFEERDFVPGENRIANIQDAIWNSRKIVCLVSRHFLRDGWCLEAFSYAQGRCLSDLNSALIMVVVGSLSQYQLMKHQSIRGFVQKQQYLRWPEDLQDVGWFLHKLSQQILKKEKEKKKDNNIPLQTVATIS
Experimental: as §1, §2

TLR8 = biological target: T4, TLR8 (Homo sapiens, UniProt Q9NR97); test: TLR8 antagonist screening, NF-κB-inducible SEAP reporter in HEK293 cells; conditions: for Average % Inhibition at TLR8: 10 μM, stimulated with CL075 at 1 μg/ml
T4 construct: expressed in transfected cells; host or cells: HEK293
T4 sequence (Q9NR97 27-1041): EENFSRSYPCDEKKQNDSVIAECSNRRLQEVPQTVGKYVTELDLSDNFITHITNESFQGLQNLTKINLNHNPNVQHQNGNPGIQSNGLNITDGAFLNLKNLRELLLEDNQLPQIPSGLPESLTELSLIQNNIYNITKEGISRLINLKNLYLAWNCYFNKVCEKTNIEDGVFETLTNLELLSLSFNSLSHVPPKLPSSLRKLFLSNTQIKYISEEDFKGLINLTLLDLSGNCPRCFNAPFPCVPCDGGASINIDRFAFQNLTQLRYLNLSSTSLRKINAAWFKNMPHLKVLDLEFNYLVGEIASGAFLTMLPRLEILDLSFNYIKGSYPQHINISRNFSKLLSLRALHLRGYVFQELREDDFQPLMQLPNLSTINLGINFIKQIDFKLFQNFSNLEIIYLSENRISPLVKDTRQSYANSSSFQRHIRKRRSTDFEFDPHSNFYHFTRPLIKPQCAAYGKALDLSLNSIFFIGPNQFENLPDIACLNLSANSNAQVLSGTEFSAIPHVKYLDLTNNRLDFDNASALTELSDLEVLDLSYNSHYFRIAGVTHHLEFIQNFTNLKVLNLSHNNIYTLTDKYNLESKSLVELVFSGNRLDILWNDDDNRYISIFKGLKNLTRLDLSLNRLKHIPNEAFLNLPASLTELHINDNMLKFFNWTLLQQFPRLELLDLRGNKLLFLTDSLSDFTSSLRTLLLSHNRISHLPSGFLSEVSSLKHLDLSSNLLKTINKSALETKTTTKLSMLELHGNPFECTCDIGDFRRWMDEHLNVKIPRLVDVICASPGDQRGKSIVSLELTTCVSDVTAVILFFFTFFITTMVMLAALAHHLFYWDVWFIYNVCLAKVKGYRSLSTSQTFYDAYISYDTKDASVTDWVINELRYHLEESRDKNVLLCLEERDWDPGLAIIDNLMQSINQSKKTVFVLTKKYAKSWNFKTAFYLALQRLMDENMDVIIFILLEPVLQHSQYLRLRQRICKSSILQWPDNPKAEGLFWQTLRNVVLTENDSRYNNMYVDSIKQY
Experimental: as §1
as §2, with “ligand.” for “ligand. For this, 20 μL of the stock test compound solution (100 μM in H2O) was added to give a total volume of 200 μL.”

SMILES | Average % Inhibition at TLR2 (TLR2) [%] | Average % Inhibition at TLR3 (TLR3) [%] | Average % Inhibition at TLR5 (TLR5) [%] | Average % Inhibition at TLR8 (TLR8) [%] | inhibition at 10 µM (TLR2; HEK293, stimulated with HKLM at 10^8 cell/ml) [%] | inhibition at 10 µM (TLR3; HEK293, stimulated with poly(I:C) at 1 μg/ml) [%] | inhibition at 10 µM (TLR5; HEK293, stimulated with Flagellin at 100 ng/ml) [%] | inhibition at 10 µM (TLR8; HEK293, stimulated with CL075 at 1 μg/ml) [%]
C=CCN1CC[C@]23c4c5ccc(O)c4O[C@H]2C(=O)CC[C@]3(O)[C@H]1C5 [(+)-Naloxone, (+)-naloxone] | 24 | 27 | 17 | 24 |  |  |  | 
COc1ccc2c(c1O)[C@@]13CCN(C)[C@@H](C2)[C@H]1CC(OC)C(=O)C3 (stereo partly drawn) [Dihydrosinomenine, dihydrosinomenine] | 27 | 40 | 16 | 21 |  |  |  | 
COC1=C[C@@H]2[C@@H]3Cc4ccc(OC)c(O)c4[C@]2(CCN3C)CC1=O [Sinomenine, sinomenine] |  |  |  |  | 30 | 28 | 19 | 20
